Source: US20080132536A1, “PYRAZOLO [3,4-B] PYRIDINE COMPOUNDS, AND THEIR USE AS PDE4 INHIBITORS” (Glaxo Group Limited, priority 2003, published 2008)

Target: T1, PDE4B (human recombinant) (Homo sapiens, UniProt Q07343)
T1 construct: made in house
Test: PDE4B inhibition, radioactive SPA and/or IMAP fluorescence polarisation (FP) assay
Type: biochemical
Conditions: for IC50: one reading or average of several (ca. 2-6) readings, SPA and/or FP assay, range given for a group of Examples, read-out: PDE4B pIC50 (±about 0.5) (converted)
Text: Human recombinant PDE4B, in particular the 2B splice variant thereof (HSPDE4B2B), is disclosed in WO 94/20079 and also M. M. McLaughlin et al., “A low Km, rolipram-sensitive, cAMP-specific phosphodiesterase from human brain: cloning and expression of cDNA, biochemical characterisation of recombinant protein, and tissue distribution of mRNA”, J. Biol. Chem., 1993, 268, 6470-6476. For example, in Example 1 of WO 94/20079, human recombinant PDE4B is described as being expressed in the PDE-deficient yeast Saccharomyces cerevisiae strain GL62, e.g. after induction by addition of 150 uM CuSO4, and 100,000×g supernatant fractions of yeast cell lysates are described for use in the harvesting of PDE4B enzyme.
The ability of compounds to inhibit catalytic activity at PDE4B or 4D (human recombinant), PDE3 (from bovine aorta), PDE5 (human recombinant) or PDE6 (from bovine retina) can optionally be determined by Scintillation Proximity Assay (SPA) in 96-well format.
Test compounds (as a solution in DMSO, preferably about 2 microlitre (ul) volume of DMSO solution) are preincubated at ambient temperature (room temperature, e.g. 19-23° C.) in Wallac Isoplates (code 1450-514) with PDE enzyme in 50 mM Tris-HCl buffer pH 7.5, 8.3 mM MgCl2, 1.7 mM EGTA, 0.05% (w/v) bovine serum albumin for 10-30 minutes (usually 30 minutes). The enzyme concentration is adjusted so that no more than 20% hydrolysis of the substrate defined below occurs in control wells without compound, during the incubation. For the PDE3, PDE4B and PDE4D assays, [5′,8-3H]Adenosine 3′,5′-cyclic phosphate (Amersham Pharmacia Biotech, code TRK.559; or Amersham Biosciences UK Ltd, Pollards Wood, Chalfont St Giles, Buckinghamshire HP8 4SP, UK) is added to give 0.05 uCi per well and about 10 nM final concentration. For the PDE5 and PDE6 assays, [8-^3H]Guanosine 3′,5′-cyclic phosphate (Amersham Pharmacia Biotech, code TRK.392) is added to give 0.05 uCi per well and about 36 nM final concentration. Plates containing assay mixture, preferably approx. 100 ul volume of assay mixture, are mixed on an orbital shaker for 5 minutes and incubated at ambient temperature for 1 hour. Phosphodiesterase SPA beads (Amersham Pharmacia Biotech, code RPNQ 0150) are added (about 1 mg per well) to terminate the assay. Plates are sealed and shaken and allowed to stand at ambient temperature for 35 minutes to 1 hour (preferably 35 minutes) to allow the beads to settle. Bound radioactive product is measured using a WALLAC TRILUX 1450 Microbeta scintillation counter. For inhibition curves, 10 concentrations (1.5 nM-30 uM) of each compound are assayed. Curves are analysed using ActivityBase and XLfit (ID Business Solutions Limited, 2 Ocean Court, Surrey Research Park, Guildford, Surrey GU2 7QB, United Kingdom) Results are expressed as pIC50 values.
The ability of compounds to inhibit catalytic activity at PDE4B (human recombinant) or PDE4D (human recombinant) can optionally be determined by IMAP Fluorescence Polarisation (FP) assay (IMAP Explorer kit, available from Molecular Devices Corporation, Sunnydale, Calif., USA; Molecular Devices code: R8062) in 384-well format.
The IMAP FP assay is able to measure PDE activity in an homogenous, non-radioactive assay format. The FP assay uses the ability of immobilised trivalent metal cations, coated onto nanoparticles (tiny beads), to bind the phosphate group of Fl-AMP that is produced on the hydrolysis of fluorescein-labelled (Fl) cyclic adenosine mono-phosphate (Fl-cAMP) to the non-cyclic Fl-AMP form. […] Binding of Fl-AMP product to the beads (coated with the immobilised trivalent cations) slows the rotation of the bound Fl-AMP and leads to an increase in the fluorescence polarisation ratio of parallel to perpendicular light. Inhibition of the PDE reduces/inhibits this signal increase. […]

T1 sequence (Q07343 1-564 isoform Q07343-2): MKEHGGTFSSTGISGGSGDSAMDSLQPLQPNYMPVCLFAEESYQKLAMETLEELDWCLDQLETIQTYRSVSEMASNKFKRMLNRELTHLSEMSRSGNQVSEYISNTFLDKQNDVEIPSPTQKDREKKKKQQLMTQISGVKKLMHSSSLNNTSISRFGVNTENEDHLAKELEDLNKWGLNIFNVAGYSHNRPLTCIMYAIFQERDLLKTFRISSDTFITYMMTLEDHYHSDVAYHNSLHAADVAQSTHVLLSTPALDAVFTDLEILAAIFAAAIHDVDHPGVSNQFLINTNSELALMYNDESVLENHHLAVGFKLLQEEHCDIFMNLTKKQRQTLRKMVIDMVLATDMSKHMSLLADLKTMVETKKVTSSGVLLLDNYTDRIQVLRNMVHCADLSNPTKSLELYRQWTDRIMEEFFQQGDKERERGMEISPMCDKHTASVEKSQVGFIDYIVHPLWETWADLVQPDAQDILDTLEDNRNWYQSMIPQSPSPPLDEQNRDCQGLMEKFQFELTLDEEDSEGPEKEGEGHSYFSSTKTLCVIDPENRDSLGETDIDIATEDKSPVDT

IC50 [nM] | PDE4B inhibitory activity compared with the comparable Example of opposite stereochemistry at the CR4R5 (benzylic) carbon atom (comparators: Examples 6, 7, 29, 26, 64, 126, 124, 170, 177) | SMILES
0.1 to 2 |  | CCn1ncc2c(NC3CCCC(O)C3)c(C(=O)NC(C)c3ccc(C)cc3)cnc21 (mixture of isomers) [Example 283, 1-ethyl-4-{[(1S,3R)-and/or (1R,3S)-3-hydroxycyclohexyl]amino}-N-[(1R)-1-(4-methylphenyl)ethyl]-1H-pyrazolo[3,4-b]pyridine-5-carboxamide]
0.501 to 3.16 |  | CCC(NC(=O)c1cnc2c(cnn2CC)c1NC1CCC(C(N)=O)CC1)c1ccc(Cl)cc1 (mixture of isomers) [Example 346, 4-{[4-(aminocarbonyl)cyclohexyl]amino}-N-[1-(4-chlorophenyl)propyl]-1-ethyl-1H-pyrazolo[3,4-b]pyridine-5-carboxamide]
0.501 to 3.16 |  | CC[C@@H](NC(=O)c1cnc2c(cnn2CC)c1NC1CCC(C(N)=O)CC1)c1ccccc1 (mixture of isomers) [Example 347, 4-{[4-(aminocarbonyl)cyclohexyl]amino}-1-ethyl-N-[(1R)-1-phenylpropyl]-1H-pyrazolo[3,4-b]pyridine-5-carboxamide]
0.501 to 3.16 |  | CCn1ncc2c(NC3CCC(C(N)=O)CC3)c(C(=O)NC(C)c3ccc(OC(F)F)cc3)cnc21 (mixture of isomers) [Example 348, 4-{[4-(aminocarbonyl)cyclohexyl]amino}-N-(1-{4-[(difluoromethyl)oxy]phenyl}ethyl)-1-ethyl-1H-pyrazolo[3,4-b]pyridine-5-carboxamide]
0.501 to 3.16 |  | CCn1ncc2c(NC3CCC(C(N)=O)CC3)c(C(=O)NC(C)c3ccc(Cl)cc3)cnc21 (mixture of isomers) [Example 349, 4-{[4-(aminocarbonyl)cyclohexyl]amino}-N-[1-(4-chlorophenyl)ethyl]-1-ethyl-1H-pyrazolo[3,4-b]pyridine-5-carboxamide]
0.501 to 3.16 |  | CCC(NC(=O)c1cnc2c(cnn2CC)c1NC1CCC(C(N)=O)CC1)c1ccc(F)cc1 (mixture of isomers) [Example 350, 4-{[4-(aminocarbonyl)cyclohexyl]amino}-1-ethyl-N-[1-(4-fluorophenyl)propyl]-1H-pyrazolo[3,4-b]pyridine-5-carboxamide]
0.501 to 3.16 |  | CCn1ncc2c(NC3CCC(C(N)=O)CC3)c(C(=O)N[C@H](C)c3ccc(Br)cc3)cnc21 (mixture of isomers) [Example 351, 4-{[4-(aminocarbonyl)cyclohexyl]amino}-N-[(1R)-1-(4-bromophenyl)ethyl]-1-ethyl-1H-pyrazolo[3,4-b]pyridine-5-carboxamide]
0.1 to 2 |  | CCn1ncc2c(NC3CCCC(O)C3)c(C(=O)N[C@H](C)c3ccc(C)cc3)cnc21 (single isomer, unassigned; diastereoisomer 2) [Example 306]
0.1 to 2 |  | CCC(NC(=O)c1cnc2c(cnn2CC)c1NC1CCOCC1)c1ccc(C)cc1C (single isomer, unassigned; enantiomer 2) [Example 304, N-[1-(2,4-dimethylphenyl)propyl]-1-ethyl-4-(tetrahydro-2H-pyran-4-ylamino)-1H-pyrazolo[3,4-b]pyridine-5-carboxamide (Enantiomer 2)]
0.794 to 5.01 | greater PDE4B inhibitory activity | CC[C@@H](NC(=O)c1cnc2c(cnn2CC)c1NC1CCOCC1)c1ccccc1 [Example 1, 1-ethyl-N-[(1R)-1-phenylpropyl]-4-(tetrahydro-2H-pyran-4-ylamino)-1H-pyrazolo[3,4-b]pyridine-5-carboxamide]
12.6 to 25.1 |  | CCn1ncc2c(NC3CCOCC3)c(C(=O)NC(C)(C)c3ccccc3)cnc21 [Example 2, 1-ethyl-N-(1-methyl-1-phenylethyl)-4-(tetrahydro-2H-pyran-4-ylamino)-1H-pyrazolo[3,4-b]pyridine-5-carboxamide]
31.6 to 70.8 |  | CC[C@H](NC(=O)c1cnc2c(cnn2CC)c1NC1CCOCC1)c1ccccc1 [Example 6, 1-ethyl-N-[(1S)-1-phenylpropyl]-4-(tetrahydro-2H-pyran-4-ylamino)-1H-pyrazolo[3,4-b]pyridine-5-carboxamide]
